Measurements: patent US5457106A, “Pyridine derivatives, their production and use” (Takeda Chemical Industries, Ltd., priority 1991, dated 1995)
Where a name gives a salt, the structure may show the parent alone. Read-outs that look alike come from different tables or passages of the source.

Columns and labels:
cyclooxygenase = target: T1, cyclooxygenase (Rattus norvegicus, UniProt Q63921); test: Cyclooxygenase inhibitory activity (HHT formation from arachidonic acid in rat platelet-rich plasma); type: cell-based, rat (Jcl:wistar)
T1 construct: from tissue; host or cells: platelets in platelet-rich plasma from rat abdominal aorta blood (Jcl:wistar, male)
T1 sequence (Q63921 27-602): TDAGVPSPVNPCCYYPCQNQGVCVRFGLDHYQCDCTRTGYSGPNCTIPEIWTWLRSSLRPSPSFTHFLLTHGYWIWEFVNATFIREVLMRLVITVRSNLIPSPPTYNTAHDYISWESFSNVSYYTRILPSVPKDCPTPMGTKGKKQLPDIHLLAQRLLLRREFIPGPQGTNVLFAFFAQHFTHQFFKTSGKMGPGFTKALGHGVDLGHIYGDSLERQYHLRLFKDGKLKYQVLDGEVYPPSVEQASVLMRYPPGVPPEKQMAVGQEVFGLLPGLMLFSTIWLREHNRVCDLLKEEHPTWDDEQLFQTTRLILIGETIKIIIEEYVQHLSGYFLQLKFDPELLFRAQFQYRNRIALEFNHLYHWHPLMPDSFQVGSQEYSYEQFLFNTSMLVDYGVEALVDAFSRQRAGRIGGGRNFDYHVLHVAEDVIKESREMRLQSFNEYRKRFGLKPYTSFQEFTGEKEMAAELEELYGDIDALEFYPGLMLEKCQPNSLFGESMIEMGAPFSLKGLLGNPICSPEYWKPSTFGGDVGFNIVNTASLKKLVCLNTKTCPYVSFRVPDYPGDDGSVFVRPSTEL

5-Lipoxygenase = target: T2, 5-Lipoxygenase (Rattus norvegicus, UniProt P12527); test: 5-Lipoxygenase inhibitory activity in rat basophilic leukemia cells; type: cell-based
T2 construct: rat basophilic leukemia cell suspension; endogenous in cells
T2 sequence (P12527 1-673): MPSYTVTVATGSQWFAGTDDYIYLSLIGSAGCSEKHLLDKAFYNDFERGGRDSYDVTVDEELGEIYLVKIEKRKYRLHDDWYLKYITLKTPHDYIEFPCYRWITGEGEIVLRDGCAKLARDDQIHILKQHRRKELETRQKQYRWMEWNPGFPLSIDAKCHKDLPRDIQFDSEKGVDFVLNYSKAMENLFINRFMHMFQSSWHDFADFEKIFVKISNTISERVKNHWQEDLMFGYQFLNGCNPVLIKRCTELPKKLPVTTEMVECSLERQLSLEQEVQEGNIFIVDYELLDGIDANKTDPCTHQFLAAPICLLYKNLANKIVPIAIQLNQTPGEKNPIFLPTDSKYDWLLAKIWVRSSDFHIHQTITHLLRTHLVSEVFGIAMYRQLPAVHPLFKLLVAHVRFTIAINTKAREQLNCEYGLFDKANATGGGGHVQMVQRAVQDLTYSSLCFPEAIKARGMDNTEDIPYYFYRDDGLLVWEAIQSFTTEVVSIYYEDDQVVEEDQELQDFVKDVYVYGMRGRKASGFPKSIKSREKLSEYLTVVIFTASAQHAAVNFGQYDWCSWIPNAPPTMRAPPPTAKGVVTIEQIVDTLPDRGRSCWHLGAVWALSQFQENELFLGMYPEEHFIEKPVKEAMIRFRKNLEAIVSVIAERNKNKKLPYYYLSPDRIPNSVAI
Description: 5-Lipoxygenase Inhibitory Activity […] Then, 0.1 ml of mast cell medium containing 50 μg of arachidonic acid and 1 μg of calcium ionophore (A-23187) were added and the mixture was allowed to stand at 37° C. for 15 minutes. Ethanol (1 ml) was added thereto and the mixture was shaken well, and filtered (Membrane filter, 0.45 μm). […] As a control, the measurement was carried out according to the same manner except that 0.01 ml of the solvent used for dissolving the test compound was used in place of the test compound. The inhibitory percentage (%) was calculated from the following equation to obtain IC50.

[1] = test system: Mouse phenylquinone writhing; test: Mouse phenylquinone writhing inhibitory activity; type: in vivo, mouse (Slc: ICR); details: Mus musculus, po, 20 min, orally, read-out: Inhibitory percentage (phenylquinone writhing)
Procedure, shortened: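 Male ICR mice (4 weeks, 17–24 g) dosed orally with compound suspended in 5% gum arabic. After 30 min, 0.02% phenylquinone (0.1 ml/10 g) given i.p.; writhing and stretching responses counted over 20 min.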

[2] = test system: ART (antigen-responding T-cell); test: In vitro ART (antigen-responding T-cell) proliferation test; type: cell-based, Lewis rat; details: Rattus norvegicus, T-cell, read-out: % Inhibition of ART growth
[3] = test system: Rat carrageenin pedal edema; test: Rat carrageenin pedal edema inhibitory activity; type: in vivo, rat (Jcl: SD); details: Rattus norvegicus, po, 3 h, 50 mg/kg, orally, 3 hours after carrageenin; read-out: Inhibitory percentage (carrageenin pedal edema)
Description: Rat Carrageenin Pedal Edema Inhibitory Activity A Jcl: SD male rat (6 weeks old, weight 160-220 g) was used. After the mesurement of the volume of the dexter hind limb foot pad, a test compound suspended in 5% gum arabic solution was administered orally. Immediately after the administration, water was further administered orally so that the total administration volume of liquid became 5 ml/rat. After one hour, 0.05 ml of 1% carrageenin suspension in physiological saline was injected subcutaneously in the foot pad to induce edema [Winter, […]. and Nuss, G. W.: Proc. Soc. exp. […] Three hours after injection of carrageenin, the volume of the dexter limb was measured, and the edema volume was calculated by the difference between the volume after injection and the volume prior to injection.

ICAM-1 = test: Adhesion protein expression inhibitory activity, ICAM-1; type: cell-based; details: human umbilical vascular endothelial cells, TNF-α, 360 min
Description: Adhesion Protein Expression Inhibitory Activity The various concentrations of test compounds were added to the human umbilical cord-derived vascular endothelial cells [sold by Klabo] which were seeded in the gelatin coat plate and the mixture was incubated at 37° C. for 15 minutes. Then, the human tumor necrosis factor-α[TNF-α; sold by Genzyme] was added therein to the final concentration of 1 ng/ml and incubation was carried out at 37° C. for 3 hours for expression of ELAM-1 and for 6 hours for that of ICAM-I. After the reaction, the cells were fixed using glutaraldhyde and the expression amount of ELAM-1 and ICAM-1 was measured by the cell-ELISA method. That is, the expression was determined by […] the adhesion proteins on the cells in the system using anti-ELAM-1 antibody BBA-2 and anti-ICAM-1 antibody BBA4 as the first antibody as well as horseradish peroxidase-labeled rabbit anti-mouse IgG antibody as the second antibody.

[4] = 5-HETE, read-out: 5-Lipoxygenase inhibitory activity, 5-HETE IC50
[5] = LTB4, read-out: 5-Lipoxygenase inhibitory activity, LTB4 IC50

IC50 (cyclooxygenase) [µM]	IC50 (5-Lipoxygenase; [4]) [µM]	IC50 (5-Lipoxygenase; [5]) [µM]	Compound	inhibition in vivo at 100 mg/kg ([1]; 100 mg/kg) [%]	inhibition at 1 µM [2] [%]	inhibition at 10 µM [2] [%]	inhibition in vivo at 50 mg/kg [1] [%]	inhibition in vivo at 50 mg/kg [3] [%]	Expression Inhibitory Potency, ICAM-1 (ICAM-1; 30 μM) [%]	Expression Inhibitory Potency, ICAM-1 (ICAM-1; 13 μM) [%]
1.6	16.8	16.1	CCCCCCCCCC(=O)NCCCSc1ccncc1 [Example 1]	61	–	–	–	–	–	–
–	22.2	17.5	CCCCCCCCCC(=O)NCCCSc1ccccn1 [Example 3, 2-[3-(caprylamino)propylthio]pyridine]	–	–	–	–	–	–	–
–	17.4	11.8	O=C1c2ccccc2C(=O)N1CCSc1ccccn1 [Example 4, 2-(2-phthalimidoethylthio)pyridine]	–	–	–	–	–	–	–
1.5	17.5	14.3	CCCCCCCCCCCC(=O)NCCCSc1ccncc1 [Example 17, 4-[3-(lauroylamino)propylthio]pyridine]	–	–	–	–	–	–	–
–	21.5	16.4	CCCCCCCC/C=C\CCCCCCCC(=O)NCCCSc1ccncc1 [Example 21, 4-[3-(oleoylamino)propylthio]pyridine]	–	–	–	–	–	–	–
–	3.5	3.2	O=C(c1ccccc1)N(CCCSc1ccncc1)Cc1ccccc1 [Example 77, 4-[3-(N-benzyl-N-benzoylamino)propylthio]pyridine hydrochloride]	–	28	85	62	–	–	–
–	2.4	2	CCCCCCCCCCCCN(CCCSc1ccncc1)C(=O)C(F)(F)F [Example 94, 4-[3-(N-dodecyl-N-trifluoroacetylamino)propylthio]pyridine]	–	33	70	–	–	–	–
–	0.044	0.033	O=C1c2ccc([N+](=O)[O-])cc2C(=O)N1CSc1ccncc1 [Example 95, 4-[(4-nitrophthalimido)methylthio]pyridine]	–	20	32	–	–	–	–
6.2	1.4	1.2	O=C1c2ccccc2CN1CCCCSc1ccncc1 [Example 109, 4-[4-(isoindolin-1-on-2-yl)butylthio]pyridine]	–	-11	-33	89	25	–	–
3.3	–	–	O=C(NCCSc1ccncc1)c1cc2ccccc2s1 [Example 123, 4-[2-(thianaphthene-2-carbonylamino)ethylthio]pyridine]	–	15	66	–	–	34	–
–	6.1	5.4	O=C(NCCCCSc1ccncc1)c1cc2ccccc2s1 [Example 128, 4-[4-(thianaphthene-2-carbonylamino)butylthio]pyridine]	–	–	–	–	–	–	–
–	4.6	4.3	O=C(c1cc2ccccc2s1)N1CCC(Sc2ccncc2)CC1 [Example 133, 4-[4-(thianaphthene-2-carbonyl)piperidylthio]pyridine]	–	–	–	–	27	–	–
–	2.3	2.2	O=c1c2ccccc2n(Cc2ccccc2)c(=O)n1CCCCSc1ccncc1 [Example 149, 3-[4-(4-pyridylthio)butyl]-1-benzylquinazolin-2,4-(1H,3H)-dione]	–	-10	19	–	–	–	–
–	1.8	1.1	O=C1SC(=Cc2ccc(Cl)cc2)C(=O)N1CCCCSc1ccncc1 [Example 151, 4-[4-[5-(4-chlorobenzylidene)-2,4-thiazolidinedione]butylthio]pyridine]	–	-1	74	–	–	60	–
–	3.8	3.7	O=C1SC(=Cc2ccccc2)C(=O)N1CCSc1ccncc1 [Example 155, 4-[2-(5-benzylidene-2,4-thiazolidinedione)ethylthio]pyridine]	–	4	78	–	–	–	–
–	–	–	O=c1c2ccccc2n(CCCCSc2ccccn2)c(=O)n1CCCCSc1ccccn1 [Example 198, 1,3-bis[4-(2-pyridylthio)butyl]quinazoline-2,4(1H,3H)-dione]	–	–	–	–	–	–	25
